Source: patent US20080139520A1, “Altering cholesterol and fat uptake by novel allosteric inhibitors of pancreatic phospholipase A2” (priority 2006, published 2008)

Columns and labels:
human pancreatic IB PLA2 = molecular target: T1, human pancreatic IB PLA2 (Homo sapiens, UniProt P04054); assay: Rate-lowering of hydrolysis of DMPC + 0.05 mole fraction cholate vesicles by human pancreatic PLA2; type: biochemical
T1 construct: gift of Dr. Suren Tatulian (Orlando, Fla.)
Description: (§1) Independent support for selective binding of the rate lowering compounds to a regulatory site on PLA2 comes from the rate-lowering effect of such compounds on the hydrolysis of DMPC vesicles containing 0.05 mole fraction cholate.
(§2) Scores of other compounds in guggul were not active.

pig pancreatic IB PLA2 = molecular target: T2, pig pancreatic IB PLA2 (Sus scrofa, UniProt P00592); assay: Rate-lowering of hydrolysis of DMPC + 0.05 mole fraction cholate vesicles by pig pancreatic PLA2; type: biochemical; conditions: 0.03 mole fraction; DMPC + 0.05 mole fraction cholate
T2 construct: made in house
T2 sequence (P00592 23-146): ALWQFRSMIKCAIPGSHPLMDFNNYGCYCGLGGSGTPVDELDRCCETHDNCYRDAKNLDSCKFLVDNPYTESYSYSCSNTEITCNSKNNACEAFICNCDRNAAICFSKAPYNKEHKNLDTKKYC
Description: as §1, §2

WT (wild type) pig PLA2 = molecular target: T3, WT (wild type) pig PLA2 (Sus scrofa, UniProt P00592); assay: PLA2 catalyzed hydrolysis of sonicated DMPC vesicles with added bile salt (pH-stat); type: biochemical
T3 construct: made in house
T3 sequence (P00592 23-146): as above
Protocol: Aqueous dispersion of phospholipid was sonicated in a bath type sonicator. Virtually transparent suspension was annealed for at least 4 hours at room temperature before use. Reaction progress for the PLA2 catalyzed hydrolysis of sonicated DMPC (1 mM) vesicles was measured by pH-stat titration (Radiometer) with 1 mM 2-aminopropanediol in 4 ml reaction buffer containing 5 mM CaCl2 for DMPC (or 0.5 mM for DMPM), 1 mM NaCl, […] atmosphere. Reaction was initiated by adding 0.1 μg enzyme in 1-10 μl solution. The pH stat method was also used for monitoring the rate of hydrolysis of DMPM (0.4 mM) vesicles in the presence of polymyxin [27-29], or of the mixed-micelles of POPC with bile salts in 1:2 ratio [13, 30].
Delay before the onset of the stationary phase of the PLA2 catalyzed reaction progress for the hydrolysis of zwitterionic phospholipids has been extensively characterized. […] The apparent rates in FIG. 3 were obtained from the initial slopes of such reaction progress during which <5% of the total substrate is hydrolyzed.
The CMC of the bile salts used in this study range between 0.8 to 5 mM.

PLA2 [1] = molecular target: T4, PLA2 (Sus scrofa, UniProt P00592); assay: Isothermal calorimetric titration of PLA2 with bile salt; type: binding, pig; conditions: ITC
T4 construct: made in house
T4 sequence (P00592 23-146): as above
Protocol: ITC titration of PLA2 with <1 mM (below the CMC) bile salt stock solution was carried out on the Microcal calorimeter (model VP-itc) with cell volume of 1.42 ml with stirring at 300 rpm. Successive injections were made every 5 min. Standard software was used for the peak integration. The heat change with the internal calibration associated with the dilution of the titrant in the […] was subtracted from the heat change obtained by the injection of the bile salt in the presence of 8.5 μM PLA2. The net heat change per injection in the presence of PLA2 was integrated to obtain the total heat change as a function of the total added amphiphile concentration.

PLA2 (3W)(WT) = molecular target: T5, PLA2 (3W)(WT) (Sus scrofa, UniProt P00592); assay: Bile salt binding by Trp emission, (3W)(WT) PLA2; parameters: species or system pig; conditions: read-out: KEB
T5 construct: made in house
T5 sequence (P00592 23-146): as above
Protocol: (§3) Fluorescence emission spectrum or time course of the intensity change from tryptophan or the resonance energy transfer probe TMA-DPH were measured in the ratio mode on SLM-Aminco AB2 in a 1 cm cuvette [31, 32] in 1.6 ml stirred buffer containing 1 or 2 μM PLA2 in 10 mM Tris, 5 mM CaCl2 and 20 mM NaCl at pH 8.0 and 24° C. The slit-widths were 4 nm with excitation at 280.
(§4) As shown in [45], the binding of decylsulfate to the R site is accompanied by a modest increase in the emission intensity from Trp-3. […] As summarized in Table 2, the value of KEB depends on the position of Trp, although Hill coefficient remains 1. […] Note that KEB for the EB complex of ΔPLA2 is about 7-fold larger than that for PLA2.

proPLA2 = proPLA2 (Sus scrofa, UniProt P00592); assay: Bile salt binding by Trp emission, proPLA2; parameters: species or system pig; conditions: read-out: KEB
Chain of proPLA2 (P00592 16-146 limits assumed): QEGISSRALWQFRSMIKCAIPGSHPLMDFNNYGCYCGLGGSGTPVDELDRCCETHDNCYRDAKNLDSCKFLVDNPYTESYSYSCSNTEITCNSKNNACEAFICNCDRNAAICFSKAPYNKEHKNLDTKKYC
Protocol: as §3, §4

PLA2 Δ62-66 = molecular target: T6, PLA2 Δ62-66 (Sus scrofa, UniProt P00592, DEL84-88); assay: Bile salt binding by Trp emission, Δ62-66 PLA2; parameters: species or system pig
T6 construct: made in house
T6 sequence (P00592 with tags, fused parts or gaps DEL84-88): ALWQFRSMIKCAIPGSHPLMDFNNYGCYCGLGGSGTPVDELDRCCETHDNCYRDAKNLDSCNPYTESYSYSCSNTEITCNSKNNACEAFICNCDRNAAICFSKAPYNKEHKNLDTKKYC
Protocol: as §3, §4

PLA2 R6M = PLA2 R6M (Sus scrofa, UniProt P00592, R28M); assay: Bile salt binding by Trp emission, R6M PLA2; parameters: species or system pig; conditions: read-out: KEB
Chain of PLA2 R6M (P00592 23-146 R28M): as the sequence (P00592 23-146) above, with R6M counted along it
Protocol: as §3, §4

PLA2 A1W/W3F = molecular target: T7, PLA2 A1W/W3F (Sus scrofa, UniProt P00592, A23W/W25F); assay: Bile salt binding by Trp emission, A1W/W3F PLA2; parameters: species or system pig; conditions: read-out: KEB
T7 construct: made in house
T7 sequence (P00592 23-146 A23W/W25F): as the sequence (P00592 23-146) above, with A1W, W3F counted along it
Protocol: as §3, §4

PLA2 L2W/W3F = molecular target: T8, PLA2 L2W/W3F (Sus scrofa, UniProt P00592, L24W/W25F); assay: Bile salt binding by Trp emission, L2W/W3F PLA2; parameters: species or system pig; conditions: read-out: KEB
T8 construct: made in house
T8 sequence (P00592 23-146 L24W/W25F): as the sequence (P00592 23-146) above, with L2W, W3F counted along it
Protocol: as §3, §4

PLA2 R6W/W3F = molecular target: T9, PLA2 R6W/W3F (Sus scrofa, UniProt P00592, R28W/W25F); assay: Bile salt binding by Trp emission, R6W/W3F PLA2; parameters: species or system pig; conditions: read-out: KEB
T9 construct: made in house
T9 sequence (P00592 23-146 W25F/R28W): as the sequence (P00592 23-146) above, with W3F, R6W counted along it
Protocol: as §3, §4

PLA2 K10W/W3F = molecular target: T10, PLA2 K10W/W3F (Sus scrofa, UniProt P00592, K32W/W25F); assay: Bile salt binding by Trp emission, K10W/W3F PLA2; parameters: species or system pig; conditions: read-out: KEB
T10 construct: made in house
T10 sequence (P00592 23-146 W25F/K32W): as the sequence (P00592 23-146) above, with W3F, K10W counted along it
Protocol: as §3, §4

PLA2 L19W/W3F = molecular target: T11, PLA2 L19W/W3F (Sus scrofa, UniProt P00592, L41W/W25F); assay: Bile salt binding by Trp emission, L19W/W3F PLA2; parameters: species or system pig; conditions: read-out: KEB
T11 construct: made in house
T11 sequence (P00592 23-146 W25F/L41W): as the sequence (P00592 23-146) above, with W3F, L19W counted along it
Protocol: as §3, §4

PLA2 M20W/W3F = molecular target: T12, PLA2 M20W/W3F (Sus scrofa, UniProt P00592, M42W/W25F); assay: Bile salt binding by Trp emission, M20W/W3F PLA2; parameters: species or system pig; conditions: read-out: KEB
T12 construct: made in house
T12 sequence (P00592 23-146 W25F/M42W): as the sequence (P00592 23-146) above, with W3F, M20W counted along it
Protocol: as §3, §4

PLA2 K56W/W3F = molecular target: T13, PLA2 K56W/W3F (Sus scrofa, UniProt P00592, K78W/W25F); assay: Bile salt binding by Trp emission, K56W/W3F PLA2; parameters: species or system pig; conditions: read-out: KEB
T13 construct: made in house
T13 sequence (P00592 23-146 W25F/K78W): as the sequence (P00592 23-146) above, with W3F, K56W counted along it
Protocol: as §3, §4

PLA2 K63W/W3F = PLA2 K63W/W3F (Sus scrofa, UniProt P00592, W25F/); assay: Bile salt binding by Trp emission, K63W/W3F PLA2; parameters: species or system pig; conditions: read-out: KEB
Chain of PLA2 K63W/W3F (P00592 whole entry W25F/F85W, form open): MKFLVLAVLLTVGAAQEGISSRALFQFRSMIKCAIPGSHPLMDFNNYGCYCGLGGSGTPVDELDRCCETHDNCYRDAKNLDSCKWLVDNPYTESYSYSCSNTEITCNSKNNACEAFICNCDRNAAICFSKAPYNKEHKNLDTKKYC
Protocol: as §3, §4

PLA2 K87W/W3F = molecular target: T14, PLA2 K87W/W3F (Sus scrofa, UniProt P00592, K109W/W25F); assay: Bile salt binding by Trp emission, K87W/W3F PLA2; parameters: species or system pig; conditions: read-out: KEB
T14 construct: made in house
T14 sequence (P00592 23-146 W25F/K109W): as the sequence (P00592 23-146) above, with W3F, K87W counted along it
Protocol: as §3, §4

PLA2 N117W = molecular target: T15, PLA2 N117W (Sus scrofa, UniProt P00592, N139W); assay: Bile salt binding by Trp emission, N117W PLA2; parameters: species or system pig; conditions: read-out: KEB
T15 construct: made in house
T15 sequence (P00592 23-146 N139W): as the sequence (P00592 23-146) above, with N117W counted along it
Protocol: as §3, §4

PLA2 [2] = molecular target: T4, PLA2; assay: Quenching of RET signal from TMA-DPH bound to PLA2 by bile salts; type: binding, pig; conditions: 1 μM PLA2 and TMA-DPH, pH 8.0
Protocol: as §3

T1 sequence (P04054 23-148): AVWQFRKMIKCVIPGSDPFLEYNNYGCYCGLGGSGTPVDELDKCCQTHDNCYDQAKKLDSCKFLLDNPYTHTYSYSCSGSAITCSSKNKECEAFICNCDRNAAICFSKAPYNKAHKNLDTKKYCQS

C[C@H](CCC(=O)NCCS(=O)(=O)O)[C@H]1CC[C@H]2[C@@H]3[C@H](O)C[C@@H]4C[C@H](O)CC[C@]4(C)[C@H]3CC[C@]12C [TCDOC, taurochenodeoxycholate]
Relative Rate-lowering (%) Activity, hPLA2 (human pancreatic IB PLA2; 0.03 mole fraction, DMPC + 0.05 mole fraction cholate): 90%
relative effectiveness in lowering the rate of hydrolysis by human PLA2 (human pancreatic IB PLA2; DMPC vesicles containing 0.05 mole fraction cholate, FIG. 5B): more effective than ezetimibe
Relative Rate-lowering (%) Activity, pPLA2 (pig pancreatic IB PLA2): 26%
concentration at which the rate increase and decrease is complete (WT (wild type) pig PLA2; 1 mM DMPC vesicles): < 0.12 mM
peak rate of hydrolysis of DMPC vesicles (WT (wild type) pig PLA2; 1 mM DMPC, 24° C., cholate above 0.04 mM): 80 s⁻¹
bile salt concentration at the maximum rate (WT (wild type) pig PLA2; 16° C., 1 mM DMPC): 0.013 mM
bile salt concentration at the maximum rate (WT (wild type) pig PLA2; 29° C., 1 mM DMPC): 0.13 mM
effect of bile salt on the rate of hydrolysis (monophasic/biphasic) (WT (wild type) pig PLA2; DMPC vesicles, pancreatic PLA2): a rate increase and then a rate decrease at higher concentration
S (PLA2 [1]; 8.5 μM PLA2): 3.5 cal/mole/deg
Hill coefficient (PLA2 [1]; single hyperbola fit): 1
Kd (PLA2 [1]; KEB, 8.5 μM PLA2): 9 µM
Kd (PLA2 (3W)(WT)): 6 µM
Kd (proPLA2): 27 µM
Kd (PLA2 Δ62-66; Δ62-66, read-out: KEB): 41 µM
KEB for the EB complex of ΔPLA2 relative to PLA2 (PLA2 Δ62-66; ΔPLA2 versus PLA2): about 7 fold
Kd (PLA2 R6M): 150 µM
Kd (PLA2 A1W/W3F): 210 µM
Kd (PLA2 L2W/W3F): 18 µM
Kd (PLA2 R6W/W3F): 50 µM
Kd (PLA2 K10W/W3F): 4 µM
Kd (PLA2 L19W/W3F): 3 µM
Kd (PLA2 M20W/W3F): 75 µM
Kd (PLA2 K56W/W3F): 21 µM
Kd (PLA2 K63W/W3F): 3 µM
Kd (PLA2 K87W/W3F): 200 µM
Kd (PLA2 N117W): 7 µM
efficacy to quench RET signal from TMA-DPH bound to PLA2 (PLA2 [2]): most effective
